Earlier results on nine compounds are cited in US11523999B2, “Compositions comprising a fatty aged oil mixture and a free fatty acid, and methods and uses thereof” (Pronova Biopharma Norge AS, priority 2009, dated 2022).

Values joined by “and” are separate entries in the source; they are usually repeats but may differ in a detail not shown here. Identical values can stand only once.

For one data set the following is noted: Other surfactants, Table 7.
As to `CCCCCCCCCCCCCCCCCC(=O)OCCOC(=O)CCCCCCCCCCCCCCCCC` [Ethylene glycol distearate], the “HBL Value” is recorded as 1.5.

Regarding `CCCCCCCCCCCCCCCC[N+](C)(C)C.[Br-]` [Cetrimonium bromide], the “HBL Value” is listed as 23.3.

For `CCCCCCCCCCCCCCCCCC(=O)OCC(O)CO` (stereo not drawn) [Glyceryl monostearate], the “HBL Value” is 3.3 and 3.8.

Consider Propylene glycol monostearate, for which the “HBL Value” is 3.4.

Consider `CCCCCCCCCCCC(=O)OCCOCCO` [Diethylene glycol monolaurate], for which the “HBL Value” is listed as 6.1.

In the case of `CCCCCCCCCCCCOS(=O)(=O)[O-].[Na+]` [Sodium lauryl sulphate], the “HBL Value” is 40.

The same data set, now with this note: Span surfactants, Table 3.
Turning to sorbitan monostearate [Span ® 60], the “HLB Value” is on record as 4.7.

Turning to sorbitan monopalmitate [Span ® 40], the “HLB Value” is listed as 6.7.

Regarding sorbitan monooleate [Span ® 80], the “HLB Value” was 4.3.
